In test [1] the target is T1, Epidermal growth factor receptor (Homo sapiens, UniProt P00533). Kind of test: Inhibition of EGF-induced EGFR-mediated pS6 phosphorylation in human A431 cells after 1 hr by immunoblotting method. The class given is cell-based, A-431. Background: A western blot detects proteins with antibodies after separation by electrophoresis.
Test [2] has as its target T1, Epidermal growth factor receptor. Kind of test: Inhibition of EGF-induced EGFR-mediated Akt phosphorylation in human A431 cells after 1 hr by immunoblotting method. It is filed as cell-based, A-431.
Test [3] is described as follows: Inhibition of EGF-induced EGFR E746 to E750 deletion mutant-mediated Akt phosphorylation in human HCC827 cells after 1 hr by immunoblotting method. The class given is cell-based. The conditions noted are these: HCC827, 1 h.
The target in test [4] is T2, Epidermal growth factor receptor (Homo sapiens, UniProt P00533, L858R/T790M). The test can be described thus: Inhibition of EGF-induced EGFR L858R/T790M mutant-mediated pS6 phosphorylation in human […] cells after 1 hr by immunoblotting method. It is filed as cell-based.
T2 sequence (P00533 25-1210 T790M/L858R limits assumed): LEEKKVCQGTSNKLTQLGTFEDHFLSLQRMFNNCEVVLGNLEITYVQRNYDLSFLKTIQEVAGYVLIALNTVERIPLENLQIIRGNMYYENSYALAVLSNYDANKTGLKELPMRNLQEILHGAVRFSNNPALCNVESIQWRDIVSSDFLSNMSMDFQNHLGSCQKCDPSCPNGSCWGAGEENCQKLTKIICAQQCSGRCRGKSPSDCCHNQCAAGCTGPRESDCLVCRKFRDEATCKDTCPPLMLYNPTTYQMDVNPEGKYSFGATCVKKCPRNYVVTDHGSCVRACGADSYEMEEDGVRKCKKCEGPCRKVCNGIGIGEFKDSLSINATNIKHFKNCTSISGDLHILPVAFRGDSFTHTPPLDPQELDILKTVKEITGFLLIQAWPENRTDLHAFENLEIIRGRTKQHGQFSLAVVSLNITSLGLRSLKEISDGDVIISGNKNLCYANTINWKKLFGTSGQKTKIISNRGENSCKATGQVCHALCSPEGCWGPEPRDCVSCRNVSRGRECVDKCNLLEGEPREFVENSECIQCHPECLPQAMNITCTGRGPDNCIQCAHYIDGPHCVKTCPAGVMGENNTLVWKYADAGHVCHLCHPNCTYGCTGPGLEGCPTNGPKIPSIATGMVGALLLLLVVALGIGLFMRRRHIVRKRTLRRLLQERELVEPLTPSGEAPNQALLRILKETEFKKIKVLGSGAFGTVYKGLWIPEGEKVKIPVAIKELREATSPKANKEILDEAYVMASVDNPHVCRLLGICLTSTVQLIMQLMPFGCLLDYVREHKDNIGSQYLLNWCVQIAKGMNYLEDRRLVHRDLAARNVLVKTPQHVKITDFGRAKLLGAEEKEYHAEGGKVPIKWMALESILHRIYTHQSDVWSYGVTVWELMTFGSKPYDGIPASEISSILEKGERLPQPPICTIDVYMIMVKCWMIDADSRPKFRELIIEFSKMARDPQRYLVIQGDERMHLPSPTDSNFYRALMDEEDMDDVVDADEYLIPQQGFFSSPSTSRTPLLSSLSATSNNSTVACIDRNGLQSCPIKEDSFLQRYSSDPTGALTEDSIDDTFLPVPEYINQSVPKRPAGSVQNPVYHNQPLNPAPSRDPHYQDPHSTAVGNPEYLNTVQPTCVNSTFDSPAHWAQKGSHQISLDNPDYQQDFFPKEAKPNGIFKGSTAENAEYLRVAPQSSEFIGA
For test [5], the target named is T1, Epidermal growth factor receptor. The test can be described thus: Inhibition of EGF-induced EGFR autophosphorylation in human A431 cells at 1 uM after 2 mins by immunoblotting method. It is filed as cell-based. As to conditions: A-431.
Test [6] has the same target. The test can be described thus: Inhibition of EGF-induced EGFR autophosphorylation in human A431 cells at 1 uM after 30 mins by immunoblotting method. The conditions noted are these: A-431. It is filed as cell-based.
Test [7] concerns the target T2, Epidermal growth factor receptor. Kind of test: Inhibition of EGF-induced EGFR L858R/T790M mutant-mediated ERK phosphorylation in human […] cells after 1 hr by immunoblotting method. It is filed as cell-based.
For test [8] the target is unchanged. Kind of test: Inhibition of EGF-induced EGFR L858R/T790M mutant-mediated Akt phosphorylation in human […] cells after 1 hr by immunoblotting method. The class given is cell-based.
The target of test [9] is T1, Epidermal growth factor receptor. Kind of test: Inhibition of EGF-induced EGFR autophosphorylation in human A431 cells after 1 hr by immunoblotting method. The class given is cell-based, A-431.
Test [10] shares this target. Kind of test: Covalent binding affinity to wild type EGFR (unknown origin) after 1 hr by mass spectrometry.
The target of test [11] is T2, Epidermal growth factor receptor. Kind of test: Inhibition of EGFR L858R/T790M mutant (unknown origin) using Y12-Sox peptide as substrate preincubated for 30 mins by fluorescence assay. The class given is protein assay.
The species named for another test is Homo sapiens. The test can be described thus: Covalent binding affinity to EGFR C773S mutant (unknown origin) after 1 hr by mass spectrometry.
Test [12] addresses T1, Epidermal growth factor receptor. Kind of test: Inhibition of EGF-induced EGFR autophosphorylation in human A431 cells at 1 uM after 10 mins by immunoblotting method. The class given is cell-based. The conditions noted are these: A-431.
The subject of another test is A-431. The test can be described thus: Growth inhibition of human A431 cells harboring wild type EGFR assessed as reduction in cell viability after 72 hrs by CellTiter Glo assay. As to conditions: A-431, 72 h. The class given is functional. In general terms: In ATP-based viability assays light output follows the ATP content of the culture.
Test [13] has as its target T1, Epidermal growth factor receptor. Kind of test: Inhibition of wild type EGFR (unknown origin) using Y12-Sox peptide as substrate preincubated for 30 mins by fluorescence assay.
Test [14] can be described thus: Growth inhibition of human HCC827 cells harboring EGFR E746 to E750 deletion mutant assessed as reduction in cell viability after 72 hrs by CellTiter Glo assay. The class given is functional. As to conditions: HCC827, 72 h.
The target in test [15] is T1, Epidermal growth factor receptor. The test can be described thus: Inhibition of EGF-induced EGFR-mediated ERK phosphorylation in human A431 cells after 1 hr by immunoblotting method. The class given is cell-based, A-431.
The next test relates to NCI-H1975. The test can be described thus: Growth inhibition of human NCI-H1975 cells harboring EGFR L858R/T790M mutant assessed as reduction in cell viability after 72 hrs by CellTiter Glo assay. The class given is functional. The conditions noted are these: NCI-H1975, 72 h.
A short description of test [16]: Inhibition of EGF-induced EGFR E746 to E750 deletion mutant autophosphorylation in human HCC827 cells after 1 hr by immunoblotting method. The class given is cell-based. As to conditions: HCC827, 1 h.
The nature of test [17]: Inhibition of EGF-induced EGFR E746 to E750 deletion mutant-mediated pS6 phosphorylation in human HCC827 cells after 1 hr by immunoblotting method. It is filed as cell-based. As to conditions: HCC827, 1 h.
Test [18] addresses T2, Epidermal growth factor receptor. The test can be described thus: Inhibition of EGF-induced EGFR L858R/T790M mutant autophosphorylation in human […] cells after 1 hr by immunoblotting method. The class given is cell-based.
The target in test [19] is T1, Epidermal growth factor receptor. Kind of test: Irreversible inhibition of EGF-induced EGFR autophosphorylation in human A431 cells assessed as residual activity compound preincubated at 1 uM for 1 to 8 hrs measured after 1 hr post compound washout by immunoblotting method. It is filed as cell-based. The conditions noted are these: A-431.
The target is the same in test [20]. Kind of test: Reversible inhibition of EGF-induced EGFR autophosphorylation in human A431 cells assessed as residual activity compound preincubated at 1 uM for 1 hr measured after 8 hrs post compound washout by immunoblotting method. It is filed as cell-based. As to conditions: A-431.
Test [21] has the same target. Kind of test: Reversible inhibition of EGF-induced EGFR autophosphorylation in human A431 cells assessed as residual activity compound preincubated at 1 uM for 1 hr measured after 1 hr post compound washout by immunoblotting method. The class given is cell-based. The conditions noted are these: A-431.

Active and inactive are the calls of the source. No cut-off for these calls is given here.

T1 sequence (P00533 whole entry): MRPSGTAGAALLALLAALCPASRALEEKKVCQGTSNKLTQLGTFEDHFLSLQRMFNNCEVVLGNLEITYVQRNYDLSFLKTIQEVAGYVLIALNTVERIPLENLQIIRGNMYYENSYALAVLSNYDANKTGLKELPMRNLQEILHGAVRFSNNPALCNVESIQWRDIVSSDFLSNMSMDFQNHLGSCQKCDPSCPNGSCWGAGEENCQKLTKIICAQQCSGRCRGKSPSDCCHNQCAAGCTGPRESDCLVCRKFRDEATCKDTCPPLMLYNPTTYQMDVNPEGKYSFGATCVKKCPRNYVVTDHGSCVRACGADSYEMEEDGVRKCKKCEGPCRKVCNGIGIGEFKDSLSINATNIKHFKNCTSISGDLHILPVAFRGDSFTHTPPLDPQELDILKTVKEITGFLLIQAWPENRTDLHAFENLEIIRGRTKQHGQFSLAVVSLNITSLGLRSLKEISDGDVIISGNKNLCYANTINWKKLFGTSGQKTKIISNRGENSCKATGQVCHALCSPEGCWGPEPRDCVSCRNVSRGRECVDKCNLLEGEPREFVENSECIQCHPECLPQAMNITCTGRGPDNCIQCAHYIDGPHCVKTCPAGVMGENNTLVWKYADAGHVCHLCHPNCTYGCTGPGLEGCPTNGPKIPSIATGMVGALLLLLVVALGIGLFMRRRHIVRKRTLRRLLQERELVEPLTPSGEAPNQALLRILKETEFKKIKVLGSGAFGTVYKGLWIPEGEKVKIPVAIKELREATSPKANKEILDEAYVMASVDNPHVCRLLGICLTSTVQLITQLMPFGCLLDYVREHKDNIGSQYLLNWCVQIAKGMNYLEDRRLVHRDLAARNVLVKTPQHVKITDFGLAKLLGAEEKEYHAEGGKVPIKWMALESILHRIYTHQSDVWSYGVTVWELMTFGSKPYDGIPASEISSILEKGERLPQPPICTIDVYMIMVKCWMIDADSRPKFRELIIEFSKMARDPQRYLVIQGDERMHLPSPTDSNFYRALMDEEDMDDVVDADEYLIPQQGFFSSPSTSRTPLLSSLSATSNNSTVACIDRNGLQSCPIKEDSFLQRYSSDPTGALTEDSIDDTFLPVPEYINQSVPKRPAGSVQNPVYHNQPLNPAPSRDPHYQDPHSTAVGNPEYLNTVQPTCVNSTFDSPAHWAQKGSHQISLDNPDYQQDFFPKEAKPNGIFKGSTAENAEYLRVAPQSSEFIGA

`C=CC(=O)Nc1cccc(Nc2cc(Nc3cccc(Br)c3)ncn2)c1`: the IC50 was 0.511 µM in test [1]; 0.104 µM in test [2]; 0.049 µM in test [9]; 0.0054 µM in [11]; less than 0.001 µM in [13]; 0.509 µM in test [15]. The EC50 in test [3] is less than 0.02 µM; in test [4], 0.427 µM; in test [7] it was 0.172 µM; in test [8], 0.166 µM; in test [16], less than 0.02 µM; in test [17] it was less than 0.02 µM. The EC50 in [18] turned out to be 0.441 µM. The inhibition in [5] came to 50%; in [12], 90%. Moreover, the inhibition entry in test [6] and in [19] was “Active” in each case. For the same compound, the Activity in [10] was greater than 80%. The outcome in the test listed under Homo sapiens was inactive. In addition, the concentration for 50% growth inhibition (GI50) in the test with A-431 was 0.018 µM; in test [14], less than 0.005 µM; in the test with NCI-H1975 it was 0.134 µM.

Take `CCC(=O)Nc1cccc(Nc2cc(Nc3cccc(Br)c3)ncn2)c1`: the 50% inhibitory concentration (IC50) was 0.243 µM in [1]; 0.136 µM in [2]; 0.166 µM in test [9]; greater than 5 µM in [11]; less than 0.001 µM in test [13]; 1.16 µM in test [15]. Moreover, the concentration giving a half-maximal response (EC50) in test [3] was less than 0.02 µM; in test [4], greater than 5 µM; in [7], greater than 5 µM; in [8], greater than 4.58 µM; in test [16], 0.027 µM; in test [17] it was less than 0.02 µM. Moreover, the half-maximal effective concentration (EC50) in test [18] was greater than 5 µM. The Activity in [20] was 60%; in test [21], 20%. In [10], the outcome was inactive. Also, the GI50 with A-431 came to 0.018 µM; in [14], 0.015 µM; with NCI-H1975 it was 0.089 µM.

By IC50 is commonly meant the midpoint of a concentration-inhibition curve. Low values mean inhibition by little substance, high ones a need for much substance. What is called EC50 is the concentration at which the effect is half-maximal. Broadly, the inhibition is how much of the control response was suppressed. As usually defined, the GI50 is the concentration at which growth is held to half of that of the control.

These data come from ChEMBL document CHEMBL3217690, “Superiority of a novel EGFR targeted covalent inhibitor over its reversible counterpart in overcoming drug resistance” (Medchemcomm, 2012).
